ChEMBL document CHEMBL1201862, “PubChem BioAssay data set” (2004)
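Protocol summary: plate cells (96-well), add compound at 5 concentrations, incubate 48 h, interpolate endpoints linearly. GI50 = concentration required for 50% inhibition of growth.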 Calls of active or inactive are those of the source. Cut-off read from the data, not from the text of the source: active = GI50 up to about 1.1 µM and inactive = higher.

Experiments:
Assay in all cases: NCI-60 cell line screen, 48 h
[1] = test system: A498
[2] = test system: A549
[3] = test system: CAKI-1
[4] = test system: HCT-116
[5] = test system: M14
[6] = test system: MCF7
[7] = test system: MDA-MB-231
[8] = test system: MDA-N
[9] = test system: MOLT-4
[10] = test system: Malme-3M
[11] = test system: NCI/ADR-RES
[12] = test system: RPMI-8226
[13] = test system: RXF 393
[14] = test system: SF-539
[15] = test system: SK-MEL-28
[16] = test system: T47D
[17] = test system: TK-10
[18] = test system: U-251
[19] = test system: UACC-257
[20] = test system: UACC-62

| SMILES | GI50 [1] | GI50 [2] | GI50 [3] | GI50 [4] | GI50 [5] | GI50 [6] | GI50 [7] | GI50 [8] | GI50 [9] | GI50 [10] | GI50 [11] | GI50 [12] | GI50 [13] | GI50 [14] | GI50 [15] | GI50 [16] | GI50 [17] | GI50 [18] | GI50 [19] | GI50 [20] |
| --- | --- | --- | --- | --- | --- | --- | --- | --- | --- | --- | --- | --- | --- | --- | --- | --- | --- | --- | --- | --- |
| C=CCOc1ccc(C2(c3ccc(OCC=C)cc3)C(=O)Nc3ccccc32)cc1 | > 10 µM (inactive) | > 10 µM (inactive) | > 10 µM (inactive) | > 10 µM (inactive) | > 10 µM (inactive) | 8.57 µM (inactive) | > 10 µM (inactive) | > 10 µM (inactive) | > 10 µM (inactive) | > 10 µM (inactive) | > 10 µM (inactive) | > 10 µM (inactive) | > 10 µM (inactive) | > 10 µM (inactive) | > 10 µM (inactive) | 8.13 µM (inactive) | > 10 µM (inactive) | > 10 µM (inactive) | > 10 µM (inactive) | > 10 µM (inactive) |
| COC(=O)C(O)P(=O)(OC)OC (stereo not drawn) | > 100 µM (inactive) | > 100 µM (inactive) | > 100 µM (inactive) | > 100 µM (inactive) | > 100 µM (inactive) | > 100 µM (inactive) | > 100 µM (inactive) | > 100 µM (inactive) | > 100 µM (inactive) | > 100 µM (inactive) | > 100 µM (inactive) | > 100 µM (inactive) | > 100 µM (inactive) | – | > 100 µM (inactive) | > 100 µM (inactive) | – | > 100 µM (inactive) | > 100 µM (inactive) | > 100 µM (inactive) |
| [N-]=[N+]=Nc1c(-c2ccccc2)c(=O)n(-c2ccccc2)c2ccccc12 | 77.8 µM (inactive) | > 100 µM (inactive) | – | 34.7 µM (inactive) | 62.2 µM (inactive) | 54.1 µM (inactive) | 74.3 µM (inactive) | 45.3 µM (inactive) | 75.7 µM (inactive) | 19.3 µM (inactive) | 63 µM (inactive) | > 100 µM (inactive) | 45.7 µM (inactive) | > 100 µM (inactive) | 94.6 µM (inactive) | 24.6 µM (inactive) | > 100 µM (inactive) | 52.1 µM (inactive) | 65.8 µM (inactive) | 56 µM (inactive) |
| CCCCCCCCCCCCCCCCOCC(Cl)COP(=O)(O)OP(=O)(O)OCC1OC(n2cc(C)c(=O)[nH]c2=O)CC1O (stereo not drawn) | > 100 µM (inactive) | > 100 µM (inactive) | > 100 µM (inactive) | > 100 µM (inactive) | > 100 µM (inactive) | > 100 µM (inactive) | 49 µM (inactive) | 52.8 µM (inactive) | > 100 µM (inactive) | > 100 µM (inactive) | 71.3 µM (inactive) | > 100 µM (inactive) | > 100 µM (inactive) | 72.9 µM (inactive) | 55.2 µM (inactive) | 97.3 µM (inactive) | > 100 µM (inactive) | > 100 µM (inactive) | > 100 µM (inactive) | – |
| O=c1c(C(c2ccc(C(c3c(O)oc4cc(O)ccc4c3=O)c3c(O)oc4cc(O)ccc4c3=O)cc2)c2c(O)oc3cc(O)ccc3c2=O)c(O)oc2cc(O)ccc12 | > 100 µM (inactive) | > 100 µM (inactive) | > 100 µM (inactive) | > 100 µM (inactive) | > 100 µM (inactive) | > 100 µM (inactive) | > 100 µM (inactive) | > 100 µM (inactive) | > 100 µM (inactive) | > 100 µM (inactive) | > 100 µM (inactive) | – | > 100 µM (inactive) | > 100 µM (inactive) | > 100 µM (inactive) | > 100 µM (inactive) | > 100 µM (inactive) | > 100 µM (inactive) | > 100 µM (inactive) | > 100 µM (inactive) |
| c1ccc2c3c(c(N4CCNCC4)nc2c1)CCCC3 | 14.5 µM (inactive) | 15.1 µM (inactive) | 9.25 µM (inactive) | 14.1 µM (inactive) | 5.26 µM (inactive) | 14.4 µM (inactive) | 14.3 µM (inactive) | 13.9 µM (inactive) | 16.1 µM (inactive) | 19.9 µM (inactive) | 14.1 µM (inactive) | – | 10.4 µM (inactive) | 10.7 µM (inactive) | 16.1 µM (inactive) | 13.5 µM (inactive) | 13.7 µM (inactive) | 13.4 µM (inactive) | 8.15 µM (inactive) | 16.7 µM (inactive) |
| CC(C)=CCC[C@@H](C)C1=CC(=O)C(C)=C(O)C1=O [ISOPEREZONE] | 17 µM (inactive) | 12.3 µM (inactive) | 4.95 µM (inactive) | 4.08 µM (inactive) | 5.25 µM (inactive) | 3.62 µM (inactive) | 6.38 µM (inactive) | 4.81 µM (inactive) | 1.71 µM (inactive) | 10.2 µM (inactive) | 3.19 µM (inactive) | 0.445 µM (active) | 2.67 µM (inactive) | – | 11 µM (inactive) | 2.13 µM (inactive) | 5.11 µM (inactive) | 8.79 µM (inactive) | 10.9 µM (inactive) | 9.33 µM (inactive) |
